According to the NIST ThermoML archive (doi:10.1021/je501033z):
Values joined by “and” are separate entries in the source; they are usually repeats but may differ in a detail not shown here. Equal values may be shown once.

Conditions: Liquid, Closed cell (Static) method

CO [methanol]
Conditions | vapor or sublimation pressure [kPa]
274.15 K | 4.252
278.15 K | 5.501
283.15 K | 7.411
293.15 K | 13
303.15 K | 21.86
313.15 K | 35.43
323.15 K | 55.54
333.15 K | 84.93
343.15 K | 125.74
353.15 K | 181.56
363.15 K | 256.27
373.15 K | 354.35
383.15 K | 480.82
393.15 K | 641.27
403.15 K | 841.83
413.15 K | 1089.2

O [water]
Conditions | vapor or sublimation pressure
279.48 K | 0.953 kPa
286.16 K | 1.508 kPa
291.39 K | 2.094 kPa
293.14 K | 2.337 kPa
296.31 K | 2.839 kPa
296.32 K | 2.834 kPa
298.81 K | 3.288 kPa
301.37 K | 3.827 kPa
303.57 K | 4.36 kPa
307.73 K | 5.507 kPa
308.26 K | 5.666 kPa
312.87 K | 7.275 kPa
313.07 K | 7.345 kPa
314.62 K | 7.977 kPa
318.13 K | 9.585 kPa and 9.578 kPa
322.99 K | 12.26 kPa
323.1 K | 12.32 kPa
323.17 K | 12.36 kPa
328.14 K | 15.75 kPa
328.88 K | 16.31 kPa
